Measured values: patent publication US10966993B2, “Pharmaceutical composition comprising a sulfonylurea drug and preparation method thereof” (JIANGSU AOSAIKANG PHARMACEUTICAL CO., LTD., priority 2016, dated 2021)
Values after ≈ are worked out from the molar mass of the structure shown. Read-outs that look alike come from different tables or passages of the source.

Experiments:
[1] = Test on the solubility of glibenclamide in additive/cyclodextrin solutions; type: physicochemical; conditions: for solubility at 1 h: 25 °C, thermodynamic from solid; for Solubility: 25° C.
Description: An excess amount of glibenclamide powder was added into an aqueous solution comprising different proportion of additive (e.g., meglumine, sodium carbonate, sodium hydrogen carbonate or sodium hydroxide) and cyclodextrin (hydroxypropyl-β-cyclodextrin) to form a suspension. The suspension was placed in a constant shaking incubator, and shaken for 1 h at 25±1° C. The shaken suspension was filtered with a 0.45 μm hydrophilic filter membrane, with the primary filtrate being disposed and the subsequent filtrate being collected. The subsequent filtrate was diluted to appropriate times with a PBS buffer having a pH of 7.4, the absorbance of the diluted subsequent filtrate was determined at a wavelength of 225 nm, and the solubility of glibenclamide in the diluted subsequent filtrate was calculated according to the absorbance. Corresponding solubility curves were plotted with the solubility of glibenclamide as the vertical axis and the concentration of cyclodextrin and/or meglumine as the horizontal axis.

[2] = background statement; cited from earlier work

## COc1ccc(Cl)cc1C(=O)NCCc1ccc(S(=O)(=O)NC(=O)NC2CCCCC2)cc1 [glibenclamide, 5-chloro-N-(4-[N-(cyclohexylcarbamoyl)aminosulfonyl]phenethyl)-2-methoxybenzamide]
[1]; aqueous buffer, meglumine 0.1% (w/v), cyclodextrin 0% (w/v), read-out: Solubility
  solubility at 1 h: 960 µg/mL (≈ 1.94 mM)
[1]; aqueous buffer, meglumine 0.5% (w/v), cyclodextrin 0% (w/v), read-out: Solubility
  solubility at 1 h: 1760 µg/mL (≈ 3.56 mM)
[1]; aqueous buffer, meglumine 1% (w/v), cyclodextrin 0% (w/v), read-out: Solubility
  solubility at 1 h: 4930 µg/mL (≈ 9.98 mM)
[1]; aqueous buffer, meglumine 2.5% (w/v), cyclodextrin 0% (w/v), read-out: Solubility
  solubility at 1 h: 8030 µg/mL (≈ 16.3 mM)
[1]; aqueous with cosolvent or surfactant or cyclodextrin, cyclodextrin only, from 0.5% (w/v) to 40% (w/v), read-out: water solubility of glibenclamide
  solubility at 1 h: 1.3 to 120 µg/mL (≈ 0.00263 to 0.243 mM)
[1]; aqueous with cosolvent or surfactant or cyclodextrin, meglumine 0% (w/v), 2-hydroxypropyl-β-cyclodextrin 0.5% (w/v), read-out: Solubility
  solubility at 1 h: 1.3 µg/mL (≈ 0.00263 mM)
[1]; aqueous with cosolvent or surfactant or cyclodextrin, meglumine 0% (w/v), 2-hydroxypropyl-β-cyclodextrin 1.25% (w/v), read-out: Solubility
  solubility at 1 h: 3.1 µg/mL (≈ 0.00628 mM)
[1]; aqueous with cosolvent or surfactant or cyclodextrin, meglumine 0% (w/v), 2-hydroxypropyl-β-cyclodextrin 2.5% (w/v), read-out: Solubility
  solubility at 1 h: 5.8 µg/mL (≈ 0.0117 mM)
[1]; aqueous with cosolvent or surfactant or cyclodextrin, meglumine 0% (w/v), 2-hydroxypropyl-β-cyclodextrin 5% (w/v), read-out: Solubility
  solubility at 1 h: 14 µg/mL (≈ 0.0283 mM)
[1]; aqueous with cosolvent or surfactant or cyclodextrin, meglumine 0% (w/v), 2-hydroxypropyl-β-cyclodextrin 10% (w/v), read-out: Solubility
  solubility at 1 h: 32 µg/mL (≈ 0.0648 mM)
[1]; aqueous with cosolvent or surfactant or cyclodextrin, meglumine 0.1% (w/v), 2-hydroxypropyl-β-cyclodextrin 0.5% (w/v), read-out: Solubility
  solubility at 1 h: 1250 µg/mL (≈ 2.53 mM)
[1]; aqueous with cosolvent or surfactant or cyclodextrin, meglumine 0.1% (w/v), 2-hydroxypropyl-β-cyclodextrin 1.25% (w/v), read-out: Solubility
  solubility at 1 h: 1420 µg/mL (≈ 2.87 mM)
[1]; aqueous with cosolvent or surfactant or cyclodextrin, meglumine 0.1% (w/v), 2-hydroxypropyl-β-cyclodextrin 2.5% (w/v), read-out: Solubility
  solubility at 1 h: 1660 µg/mL (≈ 3.36 mM)
[1]; aqueous with cosolvent or surfactant or cyclodextrin, meglumine 0.1% (w/v), 2-hydroxypropyl-β-cyclodextrin 5% (w/v), read-out: Solubility
  solubility at 1 h: 2170 µg/mL (≈ 4.39 mM)
[1]; aqueous with cosolvent or surfactant or cyclodextrin, meglumine 0.1% (w/v), 2-hydroxypropyl-β-cyclodextrin 10% (w/v), read-out: Solubility
  solubility at 1 h: 2170 µg/mL (≈ 4.39 mM)
[1]; aqueous with cosolvent or surfactant or cyclodextrin, meglumine 0.1% (w/v), 2-hydroxypropyl-β-cyclodextrin 20% (w/v), read-out: Solubility
  solubility at 1 h: 2230 µg/mL (≈ 4.51 mM)
[1]; aqueous with cosolvent or surfactant or cyclodextrin, meglumine 0.1% (w/v), 2-hydroxypropyl-β-cyclodextrin 30% (w/v), read-out: Solubility
  solubility at 1 h: 2210 µg/mL (≈ 4.47 mM)
[1]; aqueous with cosolvent or surfactant or cyclodextrin, meglumine 0.1% (w/v), 2-hydroxypropyl-β-cyclodextrin 40% (w/v), read-out: Solubility
  solubility at 1 h: 2280 µg/mL (≈ 4.62 mM)
[1]; aqueous with cosolvent or surfactant or cyclodextrin, meglumine 0.1% (w/v), cyclodextrin from 0.5% (w/v) to 5% (w/v), read-out: water solubility of glibenclamide
  solubility at 1 h: 1250 to 2170 µg/mL (≈ 2.53 to 4.39 mM)
[1]; aqueous with cosolvent or surfactant or cyclodextrin, meglumine 0.1% (w/v), cyclodextrin from 5% (w/v) to 40% (w/v), read-out: solubility of glibenclamide
  solubility at 1 h: ~2170 µg/mL (≈ 4.39 mM)
[1]; aqueous with cosolvent or surfactant or cyclodextrin, meglumine 5% (w/v), 2-hydroxypropyl-β-cyclodextrin 5% (w/v), read-out: Solubility
  solubility at 1 h: 25200 µg/mL (≈ 51.1 mM)
[1]; aqueous with cosolvent or surfactant or cyclodextrin, meglumine 5% (w/v), 2-hydroxypropyl-β-cyclodextrin 10% (w/v), read-out: Solubility
  solubility at 1 h: 34400 µg/mL (≈ 69.7 mM)
[1]; aqueous with cosolvent or surfactant or cyclodextrin, meglumine 5% (w/v), 2-hydroxypropyl-β-cyclodextrin 20% (w/v), read-out: Solubility
  solubility at 1 h: 42200 µg/mL (≈ 85.5 mM)
[1]; aqueous with cosolvent or surfactant or cyclodextrin, meglumine 5% (w/v), 2-hydroxypropyl-β-cyclodextrin 30% (w/v), read-out: Solubility
  solubility at 1 h: 49400 µg/mL (≈ 99.9 mM)
[1]; aqueous with cosolvent or surfactant or cyclodextrin, meglumine 5% (w/v), 2-hydroxypropyl-β-cyclodextrin 40% (w/v), read-out: Solubility
  solubility at 1 h: 51000 µg/mL (≈ 103 mM)
[1]; aqueous with cosolvent or surfactant or cyclodextrin, meglumine 5% (w/v), cyclodextrin 0% (w/v), read-out: Solubility
  solubility at 1 h: 13000 µg/mL (≈ 26.4 mM)
[1]; aqueous with cosolvent or surfactant or cyclodextrin, meglumine 5% (w/v), cyclodextrin from 5% (w/v) to 30% (w/v), read-out: water solubility of glibenclamide
  solubility at 1 h: 25200 to 49400 µg/mL (≈ 51.1 to 99.9 mM)
[1]; aqueous with cosolvent or surfactant or cyclodextrin, meglumine 5% (w/v), cyclodextrin from 30% (w/v) to 40% (w/v), read-out: solubility of glibenclamide
  solubility at 1 h: ~49400 µg/mL (≈ 99.9 mM)
[1]; aqueous with cosolvent or surfactant or cyclodextrin, meglumine 10% (w/v), cyclodextrin 0% (w/v), read-out: Solubility
  solubility at 1 h: 19000 µg/mL (≈ 38.6 mM)
[1]; aqueous with cosolvent or surfactant or cyclodextrin, meglumine only, from 0.1% (w/v) to 10% (w/v), read-out: water solubility of glibenclamide
  solubility at 1 h: 960 to 19000 µg/mL (≈ 1.94 to 38.6 mM)
[1]; aqueous with cosolvent or surfactant or cyclodextrin, sodium carbonate 0.1% (w/v), 2-hydroxypropyl-β-cyclodextrin 10% (w/v), read-out: Solubility
  solubility at 1 h: 6510 µg/mL (≈ 13.2 mM)
[1]; aqueous with cosolvent or surfactant or cyclodextrin, sodium carbonate 0.1% (w/v), 2-hydroxypropyl-β-cyclodextrin 20% (w/v), read-out: Solubility
  solubility at 1 h: 10600 µg/mL (≈ 21.5 mM)
[1]; aqueous with cosolvent or surfactant or cyclodextrin, sodium carbonate 0.1% (w/v), 2-hydroxypropyl-β-cyclodextrin 30% (w/v), read-out: Solubility
  solubility at 1 h: 10800 µg/mL (≈ 21.8 mM)
[1]; aqueous with cosolvent or surfactant or cyclodextrin, sodium carbonate 0.1% (w/v), 2-hydroxypropyl-β-cyclodextrin 40% (w/v), read-out: Solubility
  solubility at 1 h: 10900 µg/mL (≈ 22.1 mM)
[1]; aqueous with cosolvent or surfactant or cyclodextrin, sodium carbonate 0.1% (w/v), cyclodextrin from 5% (w/v) to 20% (w/v), read-out: water solubility of glibenclamide
  solubility at 1 h: 2350 to 10600 µg/mL (≈ 4.76 to 21.5 mM)
[1]; aqueous with cosolvent or surfactant or cyclodextrin, sodium carbonate 0.1% (w/v), cyclodextrin from 20% (w/v) to 40% (w/v), read-out: solubility of glibenclamide
  solubility at 1 h: ~10600 µg/mL (≈ 21.5 mM)
[1]; aqueous with cosolvent or surfactant or cyclodextrin, sodium hydrogen carbonate 4% (w/v), 2-hydroxypropyl-β-cyclodextrin 0.5% (w/v), read-out: Solubility
  solubility at 1 h: 320 µg/mL (≈ 0.648 mM)
[1]; aqueous with cosolvent or surfactant or cyclodextrin, sodium hydrogen carbonate 4% (w/v), 2-hydroxypropyl-β-cyclodextrin 1.25% (w/v), read-out: Solubility
  solubility at 1 h: 590 µg/mL (≈ 1.19 mM)
[1]; aqueous with cosolvent or surfactant or cyclodextrin, sodium hydrogen carbonate 4% (w/v), 2-hydroxypropyl-β-cyclodextrin 5% (w/v), read-out: Solubility
  solubility at 1 h: 1260 µg/mL (≈ 2.55 mM)
[1]; aqueous with cosolvent or surfactant or cyclodextrin, sodium hydrogen carbonate 4% (w/v), 2-hydroxypropyl-β-cyclodextrin 10% (w/v), read-out: Solubility
  solubility at 1 h: 1690 µg/mL (≈ 3.42 mM)
[1]; aqueous with cosolvent or surfactant or cyclodextrin, sodium hydrogen carbonate 4% (w/v), 2-hydroxypropyl-β-cyclodextrin 20% (w/v), read-out: Solubility
  solubility at 1 h: 1730 µg/mL (≈ 3.5 mM)
[1]; aqueous with cosolvent or surfactant or cyclodextrin, sodium hydrogen carbonate 4% (w/v), 2-hydroxypropyl-β-cyclodextrin 30% (w/v), read-out: Solubility
  solubility at 1 h: 1780 µg/mL (≈ 3.6 mM)
[1]; aqueous with cosolvent or surfactant or cyclodextrin, sodium hydrogen carbonate 4% (w/v), 2-hydroxypropyl-β-cyclodextrin 40% (w/v), read-out: Solubility
  solubility at 1 h: 1750 µg/mL (≈ 3.54 mM)
[1]; aqueous with cosolvent or surfactant or cyclodextrin, sodium hydrogen carbonate 4% (w/v), cyclodextrin from 0.5% (w/v) to 10% (w/v), read-out: water solubility of glibenclamide
  solubility at 1 h: 320 to 1690 µg/mL (≈ 0.648 to 3.42 mM)
[1]; aqueous with cosolvent or surfactant or cyclodextrin, sodium hydrogen carbonate 4% (w/v), cyclodextrin from 10% (w/v) to 40% (w/v), read-out: solubility of glibenclamide
  solubility at 1 h: ~1690 µg/mL (≈ 3.42 mM)
[1]; aqueous with cosolvent or surfactant or cyclodextrin, sodium hydroxide 0.01% (w/v), 2-hydroxypropyl-β-cyclodextrin 1.25% (w/v), read-out: Solubility
  solubility at 1 h: 370 µg/mL (≈ 0.749 mM)
[1]; aqueous with cosolvent or surfactant or cyclodextrin, sodium hydroxide 0.01% (w/v), 2-hydroxypropyl-β-cyclodextrin 2.5% (w/v), read-out: Solubility
  solubility at 1 h: 640 µg/mL (≈ 1.3 mM)
[1]; aqueous with cosolvent or surfactant or cyclodextrin, sodium hydroxide 0.01% (w/v), 2-hydroxypropyl-β-cyclodextrin 5% (w/v), read-out: Solubility
  solubility at 1 h: 810 µg/mL (≈ 1.64 mM)
[1]; aqueous with cosolvent or surfactant or cyclodextrin, sodium hydroxide 0.01% (w/v), 2-hydroxypropyl-β-cyclodextrin 10% (w/v), read-out: Solubility
  solubility at 1 h: 1260 µg/mL (≈ 2.55 mM)
[1]; aqueous with cosolvent or surfactant or cyclodextrin, sodium hydroxide 0.01% (w/v), 2-hydroxypropyl-β-cyclodextrin 30% (w/v), read-out: Solubility
  solubility at 1 h: 1240 µg/mL (≈ 2.51 mM)
[1]; aqueous with cosolvent or surfactant or cyclodextrin, sodium hydroxide 0.01% (w/v), 2-hydroxypropyl-β-cyclodextrin 40% (w/v), read-out: Solubility
  solubility at 1 h: 1350 µg/mL (≈ 2.73 mM)
[1]; aqueous with cosolvent or surfactant or cyclodextrin, sodium hydroxide 0.01% (w/v), cyclodextrin from 0.5% (w/v) to 10% (w/v), read-out: water solubility of glibenclamide
  solubility at 1 h: 140 to 1260 µg/mL (≈ 0.283 to 2.55 mM)
[1]; aqueous with cosolvent or surfactant or cyclodextrin, sodium hydroxide 0.01% (w/v), cyclodextrin from 10% (w/v) to 40% (w/v), read-out: solubility of glibenclamide
  solubility at 1 h: ~1260 µg/mL (≈ 2.55 mM)
[1]; meglumine 0% (w/v), 2-hydroxypropyl-β-cyclodextrin 30% (w/v)
  Solubility: 86 µg/mL (≈ 0.174 mM)
[1]; meglumine 0% (w/v), 2-hydroxypropyl-β-cyclodextrin 40% (w/v)
  Solubility: 120 µg/mL (≈ 0.243 mM)
[1]; sodium hydrogen carbonate 4% (w/v), 2-hydroxypropyl-β-cyclodextrin 2.5% (w/v)
  Solubility: 840 µg/mL (≈ 1.7 mM)
[1]; sodium hydroxide 0.01% (w/v), 2-hydroxypropyl-β-cyclodextrin 20% (w/v)
  Solubility: 1300 µg/mL (≈ 2.63 mM)
[2]
  water solubility: less than 5 μg/ml
